Assay results taken from patent US20110288176A1, “[…] ACID-CONTAINING COMPOSITION FOR PREVENTION OR TREATMENT OF […]-RELATED DISEASES AND METHOD FOR PREVENTION OR TREATMENT OF […]-RELATED DISEASES USING THE SAME” (priority 2008, published 2011).

Biological target: T1, Transglutaminase 2 (Cavia cutleri, UniProt P08587)
T1 construct: purchased Sigma-Aldrich T5398
T1 sequence (P08587 1-690): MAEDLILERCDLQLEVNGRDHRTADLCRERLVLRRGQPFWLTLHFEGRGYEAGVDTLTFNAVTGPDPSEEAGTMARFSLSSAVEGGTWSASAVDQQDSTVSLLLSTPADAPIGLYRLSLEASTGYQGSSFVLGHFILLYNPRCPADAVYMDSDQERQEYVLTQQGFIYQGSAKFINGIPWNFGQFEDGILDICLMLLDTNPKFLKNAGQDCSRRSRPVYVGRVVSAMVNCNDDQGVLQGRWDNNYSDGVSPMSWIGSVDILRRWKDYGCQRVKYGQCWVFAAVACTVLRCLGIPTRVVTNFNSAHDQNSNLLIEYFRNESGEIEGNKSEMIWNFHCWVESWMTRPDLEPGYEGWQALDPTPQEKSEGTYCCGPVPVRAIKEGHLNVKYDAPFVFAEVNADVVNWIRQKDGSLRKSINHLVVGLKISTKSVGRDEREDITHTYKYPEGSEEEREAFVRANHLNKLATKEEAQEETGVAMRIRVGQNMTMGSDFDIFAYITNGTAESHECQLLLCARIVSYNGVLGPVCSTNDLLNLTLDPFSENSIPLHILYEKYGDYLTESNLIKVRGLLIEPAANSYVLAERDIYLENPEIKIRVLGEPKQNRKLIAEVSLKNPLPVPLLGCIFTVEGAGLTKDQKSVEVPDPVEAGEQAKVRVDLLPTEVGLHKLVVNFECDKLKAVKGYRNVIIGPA
Test: In vitro assay for inhibition of transglutaminase activity ([1,4-14C]putrescine incorporation into succinylated casein)
Assay type: biochemical
Details: for activity of transglutaminase, Mean: mean of three assays
Description: Succinylated casein was purchased from Calbiochem (Cat. No. 573464), and 1 g of the powder was dissolved in 50 ml of a reaction buffer solution containing 5 mM DTT (0.1 M Tris-acetate (pH 8.0), 10 mM CaCl2, 0.15 M NaCl, 1.0 mM EDTA). This solution was stored in a deep freezer for further use. [1,4-^14C] Putrescine dihydrochloride was purchased from GE Healthcare (Cat. No. CFA301), and the stock solution was diluted with distilled water to yield a radiological dose of 5 μCi/ml. Transglutaminase 2 was purchased from Sigma-Aldrich (Cat. No. T5398), and diluted with distilled water to yield a final concentration of 1 unit/ml.
450 μl of succinylated casein solution and 50 μl of [1,4-^14C] putrescine dihydrochloride solution were mixed together to prepare a substrate solution. […] 500 μl of the substrate solution β and 100 μl of sample solution were mixed well, and the mixture was incubated at 37° C. for 2 hrs, before termination with 4.5 ml of cold (4° C.) 7.5% TCA. The final solution was stored at 4° C. for 1 hr. The TCA-protein precipitates were filtered through a GF/glass fiber filter, washed with 25 ml of cold 5% TCA, and dried.

[1] = 5 μM ethacrynic acid, relative to DMSO control (=1.0000)
[2] = 10 μM ethacrynic acid, relative to DMSO control (=1.0000)
[3] = 25 μM ethacrynic acid, relative to DMSO control (=1.0000)
[4] = 50 μM ethacrynic acid, relative to DMSO control (=1.0000)

C=C(CC)C(=O)c1ccc(OCC(=O)O)c(Cl)c1Cl [ethacrynic acid, 2-[2,3-dichloro-4-(2-methylidenebuanoyl)phenoxy]acetic acid]
activity of transglutaminase, Mean [1]: 0.4796 | activity of transglutaminase, Assay 1 (5 μM ethacrynic acid, radioactivity of cross-linked protein relative to DMSO control (=1.0000)): 0.5667 | activity of transglutaminase, Assay 2 [1]: 0.4572 | activity of transglutaminase, Assay 3 [1]: 0.4148 | activity of transglutaminase, Mean [2]: 0.3752 | activity of transglutaminase, Assay 1 [2]: 0.4319 | activity of transglutaminase, Assay 2 [2]: 0.3654 | activity of transglutaminase, Assay 3 [2]: 0.3281 | activity of transglutaminase, Mean [3]: 0.1935 | activity of transglutaminase, Assay 1 [3]: 0.2337 | activity of transglutaminase, Assay 2 [3]: 0.1812 | activity of transglutaminase, Assay 3 [3]: 0.1656 | activity of transglutaminase, Mean [4]: 0.0736 | activity of transglutaminase, Assay 1 [4]: 0.0763 | activity of transglutaminase, Assay 2 [4]: 0.0799 | activity of transglutaminase, Assay 3 [4]: 0.0645 | inhibition of transglutaminase activity (in words) (FIG. 1): inhibited in an ethacrynic acid concentration-dependent manner
